Columns and labels:
Assay type in all cases: cell-based
[1] = test system: plaquettes; assay: Platelet functionality: visual inspection of swirling (tournoiement) of the CPA; conditions: ALA 4 mM; CPA 10 g/L proteins; after 1 h30 illumination at 365 nm
Excerpt: (§1) Dans cet exemple, deux tests ont été effectués afin d'évaluer la fonctionnalité des plaquettes en présence de différentes concentrations d'ALA après illumination à l'aide des lampes UVA (365 nm).
Le premier test est la visualisation du tournoiement ou « swirling », c'est-à-dire l'inspection visuelle du CPA à travers une source lumineuse (phénomène lié à la présence de formes discoïdes dans la suspension plaquettaire).
(§2) Ces deux tests ont été réalisés sur un CPA ajusté à 10 g/L de protéines en présence de concentration croissante d'ALA après 1 h30 d'illumination à 365 nm.
(§3) Le même test a été réalisé sans illumination (1 h30 d'agitation douce à l'obscurité)
(§4) Un test d'agrégation et une inspection visuelle du tournoiement ont été réalisées sur un CPA ajusté à 10 g/L de protéines en présence de PpX sel disodique dans du NaOH 1 N 0,1 % (après 30 minutes d'illumination à 365 nm). Le nombre de plaquettes par poche de 8 ml est de 7,6.10^9.

[2] = test system: plaquettes; assay: Platelet functionality: collagen aggregation test (thrombo-aggregometer, turbidimetry); conditions: for % d'aggrégation: CPA 10 g/L proteins
Experimental: as §1
Le second test est un test d'agrégation au collagène. Ce test est réalisé à l'aide d'un thrombo-agrégomètre (SEFAM, Regulest, Fleurange, France). L'activation plaquettaire par un agoniste (collagène) est estimée in vitro par turbidimétrie, en enregistrant en continu à 37°C et sous agitation, la transmission d'un faisceau de lumière à travers la suspension plaquettaire. Le regroupement des plaquettes en amas de plus en plus volumineux s'accompagne d'un éclaircissement progressif du milieu. Les résultats sont rendus en pourcentage d'agrégation en fonction du temps, le 100% d'agrégation correspondant au plasma pauvre en plaquettes et le 0% d'agrégation correspondant à l'échantillon avant l'ajout de l'agoniste. L'enregistrement de la transmission lumineuse est déclenché au moment de l'ajout d'un faible volume de l'agoniste à l'échantillon. Ainsi, nous pouvons visualiser le temps de latence, le changement de forme des plaquettes puis l'agrégation qui peut être stable ou réversible.
as §2, §3, §4

[3] = test system: Klebsiella pneumoniae; assay: Bacterio-attenuation test in contaminated CPA, photodynamic treatment at 365 nm
Experimental: (§5) Les bactéries sont injectées dans les échantillons à une concentration finale de 1 bactérie pour 50 000 plaquettes. Les bactéries sont mises en culture dans un bouillon Thyoglycolate-Resazurine (ref: 42074, Biomérieux Marcy l'Etoile, France) (0,5 mL de suspension bactérienne en bouillon ou une colonie sur gélose dans 9 mL de bouillon). Elles sont incubées 24 h à 37°C pour qu'elles soient en phase de croissance lors de leur utilisation. Avant leur utilisation, le bouillon de culture est centrifugé à 2500 g pendant 10 min. à 21°C, le culot est repris dans du NaCl 0,9 % et celui-ci est lavé 3 fois à 2500 g pendant 10 min. à 21 °C.
(§6) Le titre bactérien de la suspension lavée et diluée est évalué par une lecture de densité optique à 630 nm. Une dilution de la suspension bactérienne est ensuite réalisée pour obtenir une concentration finale de 1 bactérie pour 50 000 plaquettes.
(§7) Pour réaliser les tests de bactério-atténuation, les CPA dilués sont aliquotés dans la solution SSP (MacoPharma, Tourcoing, France) pour obtenir une concentration finale en protéines de 10 g/L dans des poches en PVC. Puis 1 mL de suspension bactérienne est injecté. Le volume final contenu dans les poches est de 8 mL. Le tout est homogénéisé pour un meilleur contact entre les plaquettes et les bactéries.
(§8) L'illumination se fait à l'aide d'une lampe UVA comportant deux tubes (réf. VL-215BL, Vilber Lourmat, France) génératrice de rayons UV 365 nm et de lumière visible d'une intensité de 108 µW/cm^2 à une distance de 1 m de l'échantillon. La lampe est disposée à une distance de 13 cm des poches à traitées. L'illumination se fait à 4°C. La lampe délivre une dose de 23 J/cm^2 en 1 h.
(§9) Après illumination, une numération bactérienne est réalisée pour mesurer la diminution du tire bactérien dans les poches traitées. Pour cela, 1 mL de la dilution la plus appropriée est étalée sur des géloses nutritives Trypcase-soja (ref : 43011, boîtes de 90 mm de diamètre, Biomérieux, Marcy l'Etoile, France). Les géloses sont ensuite incubées 24 h à 37 °C pour pouvoir effectuer un comptage. Les résultats sont exprimés en ufc/mL.
Des tests de bactério-atténuation ont été effectués sur Klebsiella pneumoniae. Les tests sont réalisés sur des CPA ajustés à 10 g/L de protéines. Le nombre de plaquettes par poche de 8 mL est de 10,5.10^9.
Les poches sont incubées 1h à température ambiante puis illuminées par irradiation à 365 nm (Fig. 4 et 5).

[4] = test system: Escherichia coli; assay: as above
Experimental: as §5, §6, §7, §8, §9
Des tests de bactério-atténuation ont été effectués sur E. coli. Les tests sont réalisés sur des CPA ajustés à 10 g/L de protéines. Le nombre de plaquettes par poche de 8 ml est de 4,7 10^9.
Les poches sont incubées 1 h à 37°C avant d'être irradiées à 365 nm (Fig. 6).
Sans incubation, les résultats sont les suivants (Fig. 7) : […]

NCC(=O)CCC(=O)O [ALA, acide 5-aminolévulinique]
Swirling [1]: Faible+
% d'aggrégation ([2]; ALA 1 mM, after 1 h30 illumination at 365 nm, collagen): 80%
% d'aggrégation ([2]; ALA 1 mM, no illumination, 1 h30 in the dark, collagen): 84%
% d'aggrégation ([2]; ALA 2 mM, after 1 h30 illumination at 365 nm, collagen): 69%
% d'aggrégation ([2]; ALA 2 mM, no illumination, 1 h30 in the dark, collagen): 84%
% d'aggrégation ([2]; ALA 3 mM, after 1 h30 illumination at 365 nm, collagen): 76%
% d'aggrégation ([2]; ALA 3 mM, no illumination, 1 h30 in the dark, collagen): 82%
% d'aggrégation ([2]; ALA 4 mM, after 1 h30 illumination at 365 nm, collagen): 53%
% d'aggrégation ([2]; ALA 4 mM, no illumination, 1 h30 in the dark, collagen): 76%
% d'aggrégation ([2]; ALA 5 mM, after 1 h30 illumination at 365 nm, collagen): 26%
% d'aggrégation ([2]; ALA 5 mM, no illumination, 1 h30 in the dark, collagen): 78%
fonctionnalité des plaquettes ([2]; illumination of CPA with too high a concentration of ALA): semble faire perdre de leur fonctionnalité aux plaquettes
titre bactérien Klebsiella ([3]; ALA 1 mM, Incub. 1 h at room temperature): 187 10^-2 ufc/ml
titre bactérien Klebsiella ([3]; ALA 1 mM, Incub. 1 h then Irr. 1h30 at 365 nm): 5 10^-2 ufc/ml
titre bactérien Klebsiella ([3]; ALA 1 mM, Incub. 1 h then Irr. 1 h at 365 nm): 14 10^-2 ufc/ml
titre bactérien Klebsiella ([3]; ALA 1 mM, T0, CPA 10 g/L proteins): 201 10^-2 ufc/ml
titre bactérien Klebsiella ([3]; ALA 2 mM, Incub 1 h at room temperature): 163 10^-2 ufc/ml
titre bactérien Klebsiella ([3]; ALA 2 mM, Incub 1 h then Irr 1 h30 at 365 nm): 1 10^-2 ufc/ml
titre bactérien Klebsiella ([3]; ALA 2 mM, Incub 1 h then Irr. 1 h at 365 nm): 9 10^-2 ufc/ml
titre bactérien Klebsiella ([3]; ALA 2 mM, T0, CPA 10 g/L proteins): 159 10^-2 ufc/ml
titre bactérien Klebsiella ([3]; ALA 3 mM, Incub 1 h at room temperature): 168 10^-2 ufc/ml
titre bactérien Klebsiella ([3]; ALA 3 mM, Incub 1 h then Irr 1 h30 at 365 nm): 1 10^-2 ufc/ml
titre bactérien Klebsiella ([3]; ALA 3 mM, Incub 1 h then Irr. 1 h at 365 nm): 8 10^-2 ufc/ml
titre bactérien Klebsiella ([3]; ALA 3 mM, T0, CPA 10 g/L proteins): 179 10^-2 ufc/ml
titre bactérien Klebsiella ([3]; ALA 4 mM, Incub 1h at room temperature): 192 10^-2 ufc/ml
titre bactérien Klebsiella ([3]; ALA 4 mM, Incub 1h then Irr 1h30 at 365 nm): 1 10^-2 ufc/ml
titre bactérien Klebsiella ([3]; ALA 4 mM, Incub 1h then Irr. 1h at 365 nm): 6 10^-2 ufc/ml
titre bactérien Klebsiella ([3]; ALA 4 mM, T0, CPA 10 g/L proteins): 183 10^-2 ufc/ml
titre bactérien Klebsiella ([3]; ALA 5 mM, Incub. 1h at room temperature): 175 10^-2 ufc/ml
titre bactérien Klebsiella ([3]; ALA 5 mM, Incub. 1h then 'Irr 1h 1h30' at 365 nm): 0 10^-2 ufc/ml
titre bactérien Klebsiella ([3]; ALA 5 mM, Incub. 1h then 'Irr.' at 365 nm): 4 10^-2 ufc/ml
titre bactérien Klebsiella ([3]; ALA 5 mM, T0, CPA 10 g/L proteins): 178 10^-2 ufc/ml
inactivation de K. pneumoniae ([3]; CPA irradiated 1h and 1 h30 at 365 nm with ALA 1-5 mM, no significant difference between concentrations): obtenue
titre bactérien E. Coli ([4]; ALA 5 mM, Incub 1h at 37°C): 231 10^-2 ufc/ml
titre bactérien E. Coli ([4]; ALA 5 mM, Incub 1h at 37°C then Irr 1h30 at 365 nm): 1 10^-2 ufc/ml
titre bactérien E. Coli ([4]; ALA 5 mM, Incub 1h at 37°C then Irr. 1h at 365 nm): 17 10^-2 ufc/ml
titre bactérien E. Coli ([4]; ALA 5 mM, T0, CPA 10 g/L proteins, series with incubation): 172 10^-2 ufc/ml
titre bactérien E. Coli ([4]; ALA 5 mM, T0, without incubation): 183 10^-2 ufc/ml
titre bactérien E. Coli ([4]; ALA 5 mM, without incubation, Irr 1 h30 at 365 nm): 2 10^-2 ufc/ml
titre bactérien E. Coli ([4]; ALA 5 mM, without incubation, Irr. 1h at 365 nm): 48 10^-2 ufc/ml
inactivation de E.coli ([4]; ALA (5 mM), even without incubation, irradiation at 365 nm): efficace
inactivation de E.coli ([4]; CPA irradiated 1 h and 1 h30 at 365 nm with ALA (5 mM), after 1 h incubation at 37°C): obtenue

protoporphyrine IX [PpIX]
% d'aggrégation ([2]; PpIX 1 µM, after 30 minutes illumination at 365 nm): 53%
% d'aggrégation ([2]; PpIX 5µM, after 30 minutes illumination at 365 nm): 16%
% d'aggrégation ([2]; PpIX 10 µM, after 30 minutes illumination at 365 nm): 16%
% d'aggrégation ([2]; PpIX 20 µM, after 30 minutes illumination at 365 nm): 15%
inactivation de K. pneumoniae ([3]; PpIX 10µM, same conditions (incubation 1h, irradiation 1h and 1h30 at 365 nm)): ne permet pas l'inactivation
titre bactérien Klebsiella ([3]; PpIX 10 µM, Incub 1h at room temperature): 162 10^-2 ufc/ml
titre bactérien Klebsiella ([3]; PpIX 10 µM, Incub 1h then Irr 1h30 at 365 nm): 203 10^-2 ufc/ml
titre bactérien Klebsiella ([3]; PpIX 10 µM, Incub 1h then Irr. 1h at 365 nm): 178 10^-2 ufc/ml
titre bactérien Klebsiella ([3]; PpIX 10 µM, T0, CPA 10 g/L proteins): 181 10^-2 ufc/ml
inactivation de E.coli ([4]; PpIX 10 µM, irradiation at 365 nm): inefficace
titre bactérien E. Coli ([4]; PpIX 10 µm, T0, without incubation): 166 10^-2 ufc/ml
titre bactérien E. Coli ([4]; PpIX 10 µm, without incubation, Irr 1 h30 at 365 nm): 108 10^-2 ufc/ml
titre bactérien E. Coli ([4]; PpIX 10 µm, without incubation, Irr. 1h at 365 nm): 171 10^-2 ufc/ml

Source: patent EP1641451B1, “METHOD FOR PHOTODYNAMIC INACTIVATION OF PATHOGENS USING ALA” (MACO PHARMA, priority 2003, dated 2005)
